Measurements: ChEMBL document CHEMBL5329200, “Structure-guided design and synthesis of ATP-competitive N-acyl-substituted sulfamide d-alanine-d-alanine ligase inhibitors” (Bioorg Med Chem, 2023)

Key:
Staphylococcus aureus = test: Inhibition of C-terminal hexahistidine-tagged recombinant Staphylococcus aureus Ddl expressed in Escherichia coli BL21(DE3) assessed as remaining activity using D-Ala as substrate at 250 uM incubated for 5 mins in presence of ATP by antimony phosphomolybdate assay (reference value: 100+/-2%)
[1] = Inhibition of C-terminal hexahistidine-tagged recombinant Staphylococcus aureus Ddl expressed in Escherichia coli BL21(DE3) using D-Ala as substrate in presence of ATP by PK/LDH couples assay

Row | Activity (Staphylococcus aureus) [%] | IC50 [1] [mM] | Structure (SMILES)
1 | 90 |  | COc1ccc(CCCCOC(=O)NS(=O)(=O)NCC[C@H]2O[C@@H](n3cnc4c(N)ncnc43)[C@H](O)[C@@H]2O)cc1
2 | 76 | > 2.5 | CC1CNCCN1CCOC(=O)NS(=O)(=O)NCC[C@H]1O[C@@H](n2cnc3c(N)ncnc32)[C@H](O)[C@@H]1O (stereo partly drawn)
3 | 91 |  | Nc1ncnc2c1ncn2[C@@H]1O[C@H](CCNS(=O)(=O)NC(=O)OCCc2cccc(Cl)c2)[C@@H](O)[C@H]1O
4 | 35 | 0.1 | N[C@@H]1CONC1=O [CYCLOSERINE]
5 | 79 | > 2.5 | Nc1ncnc2c1ncn2[C@@H]1O[C@H](CCNS(=O)(=O)NC(=O)OCCCC2CCCC2)[C@@H](O)[C@H]1O
6 | 85 |  | Nc1ncnc2c1ncn2[C@@H]1O[C@H](CCNS(=O)(=O)NC(=O)OCCc2ccc(Cl)c(Cl)c2)[C@@H](O)[C@H]1O
7 | 70 | 1.7 | Nc1ncnc2c1ncn2[C@@H]1O[C@H](CCNS(=O)(=O)NC(=O)OCCN2OC[C@@H](N)C2=O)[C@@H](O)[C@H]1O
8 | 91 |  | CC(C)(C)OC(=O)NS(=O)(=O)NCC[C@H]1O[C@@H](n2cnc3c(N)ncnc32)[C@@H]2OC(C)(C)O[C@@H]21
9 | 87 |  | Nc1ncnc2c1ncn2[C@@H]1O[C@H](CCNS(=O)(=O)NC(=O)OCCc2ccccc2Cl)[C@@H](O)[C@H]1O
10 | 90 |  | CC(C)(C)OC(=O)N[C@@H]1CON(CCO)C1=O
11 | 82 |  | CC1(C)O[C@@H]2[C@H](O1)[C@@H](CCN)O[C@H]2n1cnc2c(N)ncnc21
12 | 89 |  | COc1ccc(CCOC(=O)NS(=O)(=O)NCC[C@H]2O[C@@H](n3cnc4c(N)ncnc43)[C@H](O)[C@@H]2O)cc1
13 | 96 |  | Nc1ncnc2c1ncn2[C@@H]1O[C@H](CCNS(=O)(=O)NC(=O)OCCCc2ccc(Cl)cc2)[C@@H](O)[C@H]1O
14 | 80 | > 2.5 | Nc1ncnc2c1ncn2[C@@H]1O[C@H](CCNS(=O)(=O)NC(=O)OCCc2ccccc2)[C@@H](O)[C@H]1O
15 | 84 |  | Nc1ncnc2c1ncn2[C@@H]1O[C@H](CCNS(=O)(=O)NC(=O)OCCc2ccccc2F)[C@@H](O)[C@H]1O
16 | 63 | 2.2 | NCC[C@H]1O[C@@H](n2cnc3c(N)ncnc32)[C@H](O)[C@@H]1O
17 | 89 |  | CC1(C)O[C@@H]2[C@H](O1)[C@@H](CCNS(=O)(=O)NC(=O)OCCc1ccc(Cl)c(Cl)c1)O[C@H]2n1cnc2c(N)ncnc21
18 | 82 |  | Cc1ccc(CCCOC(=O)NS(=O)(=O)NCC[C@H]2O[C@@H](n3cnc4c(N)ncnc43)[C@H](O)[C@@H]2O)cc1
19 | 110 |  | Nc1ncnc2c1ncn2CCCCNS(=O)(=O)NC(=O)OCCc1ccc(Cl)c(Cl)c1
20 | 95 |  | CC1CN(C(=O)OC(C)(C)C)CCN1CCOC(=O)NS(=O)(=O)NCC[C@H]1O[C@@H](n2cnc3c(N)ncnc32)[C@H](O)[C@@H]1O (stereo partly drawn)
21 | 72 | 1.6 | Nc1ncnc2c1ncn2[C@@H]1O[C@H](CCNS(N)(=O)=O)[C@@H](O)[C@H]1O
